Experiments:
[1] = tested on: Female Sprague-Dawley rats; experiment: In vivo diuresis and natriuresis in anesthetized rats; parameters: species or system rat; details: 300 ng/kg/min infusion, mean ± SE, n = 7
Description: The ability of analog #1 to effect diuresis and natriuresis in whole animals was determined as follows. Female Sprague-Dawley rats (230-260 g) anesthetized with inactin (100 mg/kg body weight) were catheterized by placing cannulae in femoral artery (B.P. monitoring), femoral vein (infusion of drugs and saline) and bladders (collection of urine). Post surgery, and prior to administration of test substance, saline was infused at 20 ul/min for 45 min in order to stabilize urine flow. Stabilization of urine flow was determined by collection of urine during several 10 min periods. Once stable urine flow was obtained, three 10 min control periods were collected followed by infusion of test compounds at 20 ul/min for 1 hr after priming with 10 times the infusion dose. Following experimental infusion period, saline was infused at 20 ul/min for 2 additional hr during the recovery phase. The urine volume collected during ten minute collection periods was determined gravimetrically. Urinary sodium excretion UNa V was determined photometrically.
Analog #1 infused at 10 ug/kg/min gives a mean 10-fold increase in urinary sodium excretion and a 2- to 3-fold increase in urinary flow rate. Maximal effects are not observed until the second or third experimental collection period and are sustained through the infusion.

[2] = target: T1, clearance receptor in isolated perfused rat kidney (Rattus norvegicus, UniProt P41740); experiment: Rat kidney receptor binding assay (isolated perfused rat kidney); details: labeled compound 4 × 10^-12 M + competitor 1 × 10^-6 M; n = 2
T1 construct: the clearance receptor in isolated perfused rat kidney; from tissue; host or cells: isolated perfused rat kidney
T1 sequence (P41740 41-535): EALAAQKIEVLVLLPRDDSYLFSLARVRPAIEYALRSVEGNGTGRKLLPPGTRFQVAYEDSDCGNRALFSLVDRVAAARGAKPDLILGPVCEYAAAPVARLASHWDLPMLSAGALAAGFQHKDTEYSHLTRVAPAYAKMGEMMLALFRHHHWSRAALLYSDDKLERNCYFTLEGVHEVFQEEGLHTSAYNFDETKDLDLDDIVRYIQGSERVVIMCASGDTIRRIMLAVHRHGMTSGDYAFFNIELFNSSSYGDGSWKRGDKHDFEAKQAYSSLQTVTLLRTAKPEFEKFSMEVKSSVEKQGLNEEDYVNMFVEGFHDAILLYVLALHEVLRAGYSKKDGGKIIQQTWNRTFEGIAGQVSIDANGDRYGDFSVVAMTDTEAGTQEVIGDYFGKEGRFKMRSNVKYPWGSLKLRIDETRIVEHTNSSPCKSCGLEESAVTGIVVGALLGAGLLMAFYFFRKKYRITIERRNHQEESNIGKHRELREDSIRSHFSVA
Text: The assay systems used are adapted from those of Schenk, D. B., et al, Biochem Biophys Res Commun (1985) 127:433-442 and Scarborough, R. M., J Biol Chem (1986) 261:12960-12964. These assays measure clearance receptor binding affinity through competition with ANP using the receptors on bovine aortic smooth muscle (BASM) or bovine aortic endothelial (BAE) cells. Also employed is the receptor binding affinity assay for the clearance receptor in isolated perfused rat kidney as described by Maack, T., et al, Science (1987) 238:675-679.
In the rat kidney receptor binding assay, the native 28-residue labeled ANP was used: I^125 labeled rANP(99-126), with the label linked to tyrosine at 126. The results of this assay are shown in Table 2 as the ratio of bound-to-free labeled rANP(99-126) in the presence and absence of competing compound.

| Substance | UNa V (urinary sodium excretion), difference between experimental and control periods [1] | V (urine flow), difference between experimental and control periods [1] | Ratio of Bound/Free (125I)rANP(99-126), Whole Kidney [2] |
| --- | --- | --- | --- |
| hANP(102-126): human atrial natriuretic peptide 102-126, comparison in rat diuresis/natriuresis (WDSSDRSALLKSKLRALLTAPRSLR; Atrial natriuretic factor; UniProt P01160 102-126, looked up, fragment) | 2.24 ± 0.77 uEq/min | 16.8 ± 9.3 µL/min |  |
| rANP(99-126): native 28-residue rat ANP, unlabeled competitor in the rat kidney binding assay [reference compound] |  |  | 0.56 |

Reference: patent US5449662A, “Atrial natriuretic peptide clearance inhibitors which resist degradation” (Scios Nova Inc., priority 1992, dated 1995)
